Data from patent publication US7491794B2, “Macrocyclic compounds as inhibitors of viral replication” (Intermune, Inc., priority 2003, dated 2009).

What follows are compounds tested against T1, NS3-NS4 protease (Hepatitis C virus genotype 1a, UniProt P27958) (assay: NS3-NS4 protease assay / NS3 inhibition assay, Section C). Conditions: read-out: NS3-NS4 IC50.
T1 construct: Recombinant E. coli or Baculovirus full-length NS3 was diluted to 3.33 μM with assay buffer; made in house; host or cells: E. coli or baculovirus (BV) system
T1 sequence (P27958 1027-1657): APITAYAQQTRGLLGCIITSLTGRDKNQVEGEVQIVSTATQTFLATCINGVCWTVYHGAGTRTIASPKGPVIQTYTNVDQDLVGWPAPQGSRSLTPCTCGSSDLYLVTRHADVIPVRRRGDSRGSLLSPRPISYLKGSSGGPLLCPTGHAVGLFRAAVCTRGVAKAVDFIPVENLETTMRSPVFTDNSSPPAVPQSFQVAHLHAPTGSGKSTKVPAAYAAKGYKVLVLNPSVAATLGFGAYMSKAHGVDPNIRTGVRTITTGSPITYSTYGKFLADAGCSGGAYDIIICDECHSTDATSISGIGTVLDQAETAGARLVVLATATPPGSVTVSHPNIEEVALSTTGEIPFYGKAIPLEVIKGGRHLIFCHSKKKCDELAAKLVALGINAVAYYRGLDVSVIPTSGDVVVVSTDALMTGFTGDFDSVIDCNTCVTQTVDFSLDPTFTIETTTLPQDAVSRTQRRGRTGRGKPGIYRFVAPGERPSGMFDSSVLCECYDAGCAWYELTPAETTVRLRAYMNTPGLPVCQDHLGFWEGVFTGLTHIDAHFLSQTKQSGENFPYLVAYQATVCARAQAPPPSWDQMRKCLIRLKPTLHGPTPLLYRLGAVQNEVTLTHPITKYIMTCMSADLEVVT
Assay type: biochemical
Protocol: NS3 complex formation with NS4A-2.
(§1) Recombinant E. coli or Baculovirus full-length NS3 was diluted to 3.33 μM with assay buffer and transfered material to an eppendorf tube and place in water bath in 4° C. refrigerator. The appropriate amount of NS4A-2 to 8.3 mM in assay buffer was added to equal the volume of NS3 in step 2.1.1 (conversion factor −3.8 mg/272 μL assay buffer). The material was transferred to an eppendorf tube and place in water bath in 4° C. refrigerator.
(§2) After equilibration to 4° C., equal volumes of NS3 and NS4A-2 solutions were combined in an eppendorf tube, mix gently with a manual pipettor, and incubate mixture for 15 minutes in the 4° C. water bath. Final concentrations in the mixture are 1.67CM NS3, 4.15 mM NS4A-2 (2485-fold molar excess NS4A-2).
After 15 minutes at 4° C., the NS3/NS4A-2 eppendorf tube was removed and place it in a room temperature water bath for 10 minutes. NS3/NS4A-2 was alliquoted at appropriate volumes and store at −80° C. (E. coli NS3 run at 2 nM in assay, aliquot at 25 μL. BV NS3 run at 3 nM in assay, aliquot at 30 μL).
Step 2.2.5. Sample compounds were dissolved to 10 mM in DMSO then diluted to 2.5 mM (1:4) in DMSO.
Step 2.2.6. The E. coli. NS3/NS4A-2 was diluted to 4 nM NS3 (1:417.5 of […] stock−18 μL 1.67 μM stock+7497 μL assay buffer). The BV NS3/NS4A-2 was diluted to 6 nM NS3 (1:278.3 of 1.67 μM stock−24 μL 1.67 μM stock+6655 μL assay buffer).
Step 2.2.7. Using the manual multichannel pipettor, and being careful not to introduce bubbles into the plate, 50 μL assay buffer were added to wells A01-H01 of a black Costar 96-well polypropylene storage plate.
Step 2.2.8. Using the manual multichannel pipettor, and being careful not to introduce bubbles into the plate, 50 μL of diluted NS3/NS4A-2 from step 2.2.6 were added to wells A02-H12 of plate in step 2.2.7.
Step 2.2.9. Using the manual multichannel pipettor, and being careful not to introduce bubbles into the plate, 25 μL of the wells in drug dilution plate in step 2.2.5 were transferred to corresponding wells in assay plate in step 2.2.8. The tips on multichannel pipettor were changed for each row of compounds transferred.
Step 2.2.10. Using the manual multichannel pipettor, and being careful not to introduce bubbles into the plate, the contents of the wells from the assay plate in step 2.2.9 were mixed by aspirating and dispensing 35 μL of the 75 μL in each well five times. The tips on the multichannel pipettor were changed for each row of wells mixed.
Step 2.2.11. The plate was covered with a polystyrene plate lid, and the plate from step 2.2.10 containing NS3 protease and sample compounds was pre-incubated 10 minutes at room temperature.
While the plate from step 2.2.11 was pre-incubating, the RETS1 substrate was diluted in a 15 mL polypropylene centrifuge tube. The RETS1 substrate was diluted to 8 μM (1:80.75 of 646 μM stock−65 μL 646 μM stock+5184 μL assay buffer).
After the plate in step 2.2.11 was done pre-incubating, and using the manual multichannel, 25 μL of substrate were added to all wells on the plate. The contents of the wells of plate were quickly mixed, as in step 2.2.10, but mixing 65 μL of the 100 μL in the wells.
(§3) The plate was read in kinetic mode on the Molecular Devices SpectraMax Gemini XS plate reader. Reader settings: Read time: 30 minutes, Interval: 36 seconds, Reads: 51, Excitation λ: 335 nm, Emission λ: 495 nm, cutoff: 475 nm, Automix: off, Calibrate: once, PMT: high, Reads/well: 6, Vmax pts: 21 or 28/51 depending on length of linearity of reaction.
IC50s were determined using a four parameter curve fit equation, and converted to Ki's using the following Km's:
(§4) where Ki=IC50/(1+[S]/Km))

Row | Structure (SMILES) | IC50 [nM]
1 | CC(C)(C)OC(=O)N[C@H]1CCCCC/C=C\[C@@H]2C[C@@]2(C(=O)NS(=O)(=O)NC2(C#N)CC2)NC(=O)[C@@H]2C[C@@H](OC(=O)N3Cc4ccccc4C3)CN2C1=O [Compound 123, (1S,4R,6S,14S,18R)-1,3-Dihydro-isoindole-2-carboxylic acid 14-tert-butoxycarbonylamino-4-(N-(1-cyanocyclopropyl)aminosulfonyl-aminocarbonyl)-2,15-dioxo-3,16-diaza-tricyclo[14.3.0.0^4,6]nonadec-7-en-18-yl ester] | < 100
2 | CC(C)(C)OC(=O)N[C@H]1CCCCC/C=C\[C@@H]2C[C@@]2(C(=O)NS(=O)(=O)N2CCCC2)NC(=O)C2C[C@@H](OC(=O)NC(CN3CCOCC3)c3ccccc3)CN2C1=O (stereo partly drawn) [Compound 112, (1S,4R,6S,14S,18R)-(2-Morpholin-4-yl-1-phenyl-ethyl)-carbamic acid 14-tert-butoxycarbonylamino-2,15-dioxo-4-(pyrrolidine-1-sulfonylaminocarbonyl)-3,16-diaza-tricyclo[14.3.0.0^4,6]nonadec-7-en-18-yl ester] | < 100
3 | CC(C)(C)OC(=O)N[C@H]1CCCCC/C=C\[C@@H]2C[C@@]2(C(=O)NS(=O)(=O)N2CCCC2)NC(=O)C2C[C@@H](OC(=O)N3CCc4ccccc4C3CN3CCOCC3)CN2C1=O (stereo partly drawn) [Compound 111, (1S,4R,6S,14S,18R)-1-Morpholine-4-ylmethyl-3,4-dihydro-1H-isoquinoline-2-carboxylic acid 14-tert-butoxycarbonylamino-2,15-dioxo-4-(pyrrolidine-1-sulfonylaminocarbonyl)-3,16-diaza-tricyclo[14.3.0.0^4,6]nonadec-7-en-18-yl ester] | < 100

Each compound was assayed against T1, NS3-NS4 protease (assay: NS3-NS4 protease assay / NS3 inhibition assay, Section D). Conditions: not given.
Assay type: biochemical
Protocol: NS3-NS4 Protease Assay NS3 complex formation with NS4A-2.
as §1, with “transferred” for “transfered”
as §2, with “1.67 μM” for “1.67CM”
After 15 minutes at 4° C., the NS3/NS4A-2 eppendorf tube was removed and placed in a room temperature water bath for 10 minutes. NS3/NS4A-2 was alliquoted at appropriate volumes and store at −80° C. (E. coli NS3 run at 2 nM in assay, aliquot at 25 μL. BV NS3 run at 3 nM in assay, aliquot at 30 μL).
Sample compounds were dissolved to 10 mM in DMSO then diluted to 2.5 mM (1:4) in DMSO.
The E. coli. NS3/NS4A-2 was diluted to 4 nM NS3 (1:417.5 of 1.67 μM stock−18 μL 1.67 μM stock+7497 μL assay buffer).
The BV NS3/NS4A-2 was diluted to 6 nM NS3 (1:278.3 of 1.67 μM stock−24 μL 1.67 μM stock+6655 μL assay buffer).
Using the manual multichannel pipettor, careful not to introduce bubbles into the plate, add 50 μL assay buffer to wells A01-H01 of a black Costar 96-well polypropylene storage plate.
Using the manual multichannel pipettor, careful not to introduce bubbles into the plate, add 50 μL of diluted NS3/NS4A-2 from step 2.2.6 to wells A02-H12 of plate in step 2.2.7.
Using the manual multichannel pipettor, careful not to introduce bubbles into the plate, transfer 25 μL of the wells in drug dilution plate in step 2.2.5 to corresponding wells in assay plate in step 2.2.8. Change tips on multichannel pipettor for each row of compounds transferred.
Using the manual multichannel pipettor, careful not to introduce bubbles into the plate, mix the wells from the assay plate in step 2.2.9 by aspirating and dispensing 35 μL of the 75 μL in each well five times. Change tips on multichannel pipettor for each row of wells mixed.
Cover plate with a polystyrene plate lid and pre-incubate the plate from step 2.2.10 containing NS3 protease and sample compounds 10 minutes at room temperature.
While plate from step 2.2.11 is pre-incubating, dilute RETS1 substrate in a 15 mL polypropylene centrifuge tube.
Dilute RETS1 substrate to 8 μM (1:80.75 of 646 μM stock−65 μL 646 μM stock+5184 μL assay buffer).
After the plate in step is done pre-incubating, and using the manual multichannel, add 25 μL of substrate to all wells on the plate. Quickly mix the plate as in step 2.2.10, mixing 65 μL of the 100 μL in the wells.
as §3, with “Read the” for “The”, “plate” for “plate was read”, “k:” for “λ:”
IC50s are determined using a four parameter curve fit equation, and converted to Ki's using the following Km's:
as §4

Row | IC50 [nM] | Structure (SMILES)
4 | < 100 | CC(C)(C)OC(=O)N[C@H]1CCCCC/C=C\[C@@H]2C[C@@]2(C(=O)NS(=O)(=O)C2CC2)NC(=O)[C@@H]2C[C@@H](NC(=O)c3c(Cl)cc(Cl)cc3Cl)CN2C1=O [Example 5]
5 | < 100 | CC(C)(C)OC(=O)N[C@H]1CCCCC/C=C\[C@@H]2C[C@@]2(C(=O)NS(=O)(=O)C2CC2)NC(=O)[C@@H]2C[C@@H](NC(=O)c3cc4ccccc4o3)CN2C1=O [Example 39]
6 | < 100 | CC(C)(C)OC(=O)N[C@H]1CCCCC/C=C\[C@@H]2C[C@@]2(C(=O)NS(=O)(=O)C2CC2)NC(=O)[C@@H]2C[C@@H](NC(=O)c3cc4ccccc4s3)CN2C1=O [Example 43]
7 | < 100 | CC(C)(C)OC(=O)N[C@H]1CCCCC/C=C\[C@@H]2C[C@@]2(C(=O)NS(=O)(=O)C2CC2)NC(=O)[C@@H]2C[C@@H](NC(=O)c3cc4cc(Cl)ccc4[nH]3)CN2C1=O [Example 32]
8 | < 10000 | COc1ccc(C(=O)N[C@@H]2C[C@H]3C(=O)N[C@]4(C(=O)O)C[C@H]4/C=C\CCCCC[C@H](NC(=O)OC(C)(C)C)C(=O)N3C2)cc1C(F)(F)F [Example 69]
9 | < 100 | CC(C)(C)OC(=O)N[C@H]1CCCCC/C=C\[C@@H]2C[C@@]2(C(=O)NS(=O)(=O)C2CC2)NC(=O)[C@@H]2C[C@@H](NC(=O)c3ccc(C#N)cc3)CN2C1=O [Example 9]
10 | < 10000 | COc1ccc(C(=O)N[C@@H]2C[C@H]3C(=O)N[C@]4(C(=O)O)C[C@H]4/C=C\CCCCC[C@H](NC(=O)OC(C)(C)C)C(=O)N3C2)cc1 [Example 61]
11 | < 10000 | CC(C)(C)OC(=O)N[C@H]1CCCCC/C=C\[C@@H]2C[C@@]2(C(=O)O)NC(=O)[C@@H]2C[C@@H](NC(=O)c3ccc4cccnc4c3)CN2C1=O [Example 67]
12 | < 100 | CC(CC(=O)N[C@H]1CCCCC/C=C\[C@@H]2C[C@@]2(C(=O)NS(=O)(=O)C2CC2)NC(=O)[C@@H]2C[C@@H](NC(=O)c3sc4ccccc4c3Cl)CN2C1=O)C(F)(F)F (stereo partly shown) [Example 53]
13 | < 100 | Cn1c(C(=O)N[C@@H]2C[C@H]3C(=O)N[C@]4(C(=O)NS(=O)(=O)C5CC5)C[C@H]4/C=C\CCCCC[C@H](NC(=O)OC(C)(C)C)C(=O)N3C2)cc2ccccc21 [Example 35]
14 | < 100 | O=C(CCC(F)(F)F)N[C@H]1CCCCC/C=C\[C@@H]2C[C@@]2(C(=O)NS(=O)(=O)C2CC2)NC(=O)[C@@H]2C[C@@H](NC(=O)c3sc4ccccc4c3Cl)CN2C1=O [Example 50]
15 | < 100 | CC(C)(C)OC(=O)N[C@H]1CCCCC/C=C\[C@@H]2C[C@@]2(C(=O)NS(=O)(=O)C2CC2)NC(=O)[C@@H]2C[C@@H](NC(=O)c3ccc(Cl)c(Cl)c3)CN2C1=O [Example 16]
16 | < 100 | CC(C)(C)OC(=O)N[C@H]1CCCCC/C=C\[C@@H]2C[C@@]2(C(=O)NS(=O)(=O)C2CC2)NC(=O)[C@@H]2C[C@@H](NC(=O)c3cccc(C#N)c3)CN2C1=O [Example 10]
